pIC50: −log10 of the molar value. The source made the active and inactive calls.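 The calls were made as follows: active = compounds blocking the Peg3 reporter with IC50 up to 10 µM at 6 or 24 hours, yet inert on a control reporter; inactive = the rest.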

Test [1] can be described thus: GAPDH versus PEG-3 reporter suppression – cell-based, luminescence, counter-screen for PEG-3 promoter inhibitor project, SAR follow-up (AID 651551). Conditions: HeLa PEG-Prom / GAPDH luciferase reporter, 6 or 24 h, GAPDH, mean of runs.
Test [2] concerns the target PEG-3 (UniProt Q6IN02). The test is described as above. As to conditions: HeLa PEG-Prom / GAPDH luciferase reporter, 6 or 24 h, mean of runs. (In a reporter assay the amount or activity of a reporter protein is the signal.)

What is called IC50 is the midpoint of a concentration-inhibition curve. For the molecule `Cc1nc(NC(=O)c2ccccc2)sc1-c1csc(Nc2ccccc2)n1`, the IC50 entry in test [1] (6 h), in test [1] (24 h) and in test [2] (24 h) was “inactive” in each case. Further, the IC50 in test [2] (6 h) is > 99 µM (inactive).

In general, pIC50 refers to −log10 of the IC50, conventionally taken in molar units. Regarding `COc1ccccc1Nc1nc(-c2sc(NC(=O)c3ccco3)nc2C)cs1`, in test [1] (6 h), the IC50 result is “inactive”. The pIC50 in test [1] (24 h) is 5.38. For the same molecule, the IC50 in test [2] (6 h) and in test [2] (24 h) was > 99 µM (inactive) each time.

Regarding `COc1ccc(Cl)cc1Nc1nc(-c2sc(NC(=O)c3ccccc3)nc2C)cs1`, the IC50 in test [1] (6 h) is > 99 µM (inactive). In addition, the pIC50 in test [1] (24 h) is 5.00. Further, the IC50 entry in test [2] (6 h) and in test [2] (24 h) was “inactive” in each case.

In the case of `CCCn1nc(C(=O)Nc2nc(-c3ccncc3)cs2)c2ccccc2c1=O`, the IC50 entry in test [1] (6 h), in test [2] (6 h) and in test [2] (24 h) was “inactive” each time. Moreover, in test [1] (24 h), the pIC50 was 5.27.

Take `Cc1nc(NC(=O)c2ccccc2)sc1-c1csc(Nc2cccc(Cl)c2C)n1`: the IC50 in test [1] (6 h), in test [2] (6 h) and in test [2] (24 h) was > 99 µM (inactive) throughout. The IC50 result in test [1] (24 h) was “inactive”.

For `Cc1cc(NC(=O)c2ccccc2)n(-c2nc3ccccc3n2C)n1`, the IC50 in test [1] (6 h), in test [1] (24 h) and in test [2] (24 h) was > 99 µM (inactive) in each case. The IC50 entry in test [2] (6 h) was “inactive”.

In the case of `CCn1nc(C(=O)Nc2nc(-c3ccccn3)cs2)c2ccccc2c1=O`, the IC50 result in test [1] (6 h) and in test [2] (6 h) was “inactive” throughout. For the same molecule, the pIC50 in test [1] (24 h) is 5.40; in test [2] (24 h) it was 5.21.

On to `COc1ccc(-n2nc(C(=O)NCC(=O)Nc3ccc(OC)c(OC)c3)c3ccccc3c2=O)cc1`, for which the IC50 result in test [1] (6 h) and in test [1] (24 h) was “inactive” throughout. Besides, the IC50 in test [2] (6 h) and in test [2] (24 h) was > 99 µM (inactive) each time.

Consider `COc1ccc(-n2nc(C(=O)NCC(=O)Nc3cccc(OC)c3)c3ccccc3c2=O)cc1`, for which the IC50 in test [1] (6 h), in test [2] (6 h) and in test [2] (24 h) was > 99 µM (inactive) each time. Moreover, the IC50 entry in test [1] (24 h) was “inactive”.

On to `O=C(Nc1nc2ccccc2s1)c1nn(-c2ccccc2)c(=O)c2ccccc12`, for which the IC50 in test [1] (6 h), in test [2] (6 h) and in test [2] (24 h) was > 99 µM (inactive) throughout. Further, the IC50 entry in test [1] (24 h) is “inactive”.

On to `Cc1ccc(Cl)cc1Nc1nc(-c2sc(NC(=O)c3ccco3)nc2C)cs1`, for which the IC50 result in test [1] (6 h), in test [2] (6 h) and in test [2] (24 h) was “inactive” each time. In addition, the pIC50 in test [1] (24 h) is 5.12.

For the molecule `COCCCNC(=O)c1ccc(Cn2c(=O)c3ccccc3n(Cc3ccccc3C#N)c2=O)cc1`, the IC50 in test [1] (6 h) and in test [2] (6 h) was > 99 µM (inactive) in each case. For the same molecule, the pIC50 in test [1] (24 h) is 5.33; in test [2] (24 h) it was 5.19.

Take `CCCn1nc(C(=O)Nc2nc3ccccc3s2)c2ccccc2c1=O`: the IC50 in test [1] (6 h), in test [2] (6 h) and in test [2] (24 h) was > 99 µM (inactive) each time. Moreover, in test [1] (24 h), the IC50 entry was “inactive”.

Turning to `CCn1cc(C(=O)NCc2ccco2)c(=O)c2cc(S(=O)(=O)N3CCCC3)ccc21`, the IC50 in test [1] (6 h), in test [2] (6 h) and in test [2] (24 h) was > 99 µM (inactive) each time. Besides, the IC50 result in test [1] (24 h) was “inactive”.

Turning to `Cc1nc(NC(=O)c2ccccc2)sc1-c1csc(Nc2ccccc2Cl)n1`, the IC50 in test [1] (6 h), in test [2] (6 h) and in test [2] (24 h) was > 99 µM (inactive) in each case. Further, the pIC50 in test [1] (24 h) is 5.12.

Turning to `Cc1cc(NC(=O)c2ccccc2)n(-c2nc3ccccc3[nH]2)n1`, the IC50 in test [1] (6 h) and in test [1] (24 h) was > 99 µM (inactive) each time. For the same molecule, the IC50 result in test [2] (6 h) and in test [2] (24 h) was “inactive” in each case.

Turning to `COc1ccc(-n2nc(C(=O)NCC(=O)Nc3cc(OC)c(OC)c(OC)c3)c3ccccc3c2=O)cc1OC`, the IC50 in test [1] (6 h), in test [2] (6 h) and in test [2] (24 h) was > 99 µM (inactive) in each case. Moreover, the pIC50 in test [1] (24 h) was 5.20.

As for `Cc1cc(NC(=O)c2ccccc2C)n(-c2nc3ccccc3[nH]2)n1`, the IC50 in test [1] (6 h) was > 99 µM (inactive). In addition, the IC50 result in test [1] (24 h), in test [2] (6 h) and in test [2] (24 h) was “inactive” in each case.

For the molecule `Cc1cc(NC(=O)c2cccc(C)c2C)n(-c2nc3ccccc3[nH]2)n1`, the IC50 in test [1] (6 h) and in test [2] (24 h) was > 99 µM (inactive) throughout. Moreover, the IC50 result in test [1] (24 h) and in test [2] (6 h) was “inactive” throughout.

Consider `O=C(Nc1nccs1)c1nn(-c2ccccc2)c(=O)c2ccccc12`, for which the IC50 entry in test [1] (6 h) was “inactive”. The pIC50 in test [1] (24 h) was 5.08. Besides, the IC50 in test [2] (6 h) and in test [2] (24 h) was > 99 µM (inactive) each time.

Take `CCCn1nc(C(=O)Nc2nc(-c3ccccn3)cs2)c2ccccc2c1=O`: the IC50 entry in test [1] (6 h) and in test [2] (24 h) was “inactive” each time. Moreover, the pIC50 in test [1] (24 h) was 5.15; in test [2] (6 h), 5.06.

Consider `O=C(Nc1nc(-c2ccccc2)cs1)c1nn(-c2ccccc2)c(=O)c2ccccc12`, for which the IC50 in test [1] (6 h), in test [1] (24 h), in test [2] (6 h) and in test [2] (24 h) was > 99 µM (inactive) throughout.

For `Cc1cc(NC(=O)c2ccccc2C(F)(F)F)n(-c2nc3ccccc3[nH]2)n1`, the IC50 result in test [1] (6 h), in test [2] (6 h) and in test [2] (24 h) was “inactive” in each case. The pIC50 in test [1] (24 h) is 5.06.

These data come from PubChem BioAssay AID651551 (Sanford-Burnham Center for Chemical Genomics, 2012).
